The assay concerns summer barley (HORVS). As to the kind of experiment: Reduction of damage by mesosulfuron-methyl on summer barley (safener greenhouse test, post-emergence). It is filed as in vivo, summer barley (HORVS; cv. Montoya). Also noted: key: 0: no reduction in damage (appearance corresponding to the herbicide control); 1: slight reduction in damage; 2: distinct reduction in damage; 3: significant reduction in damage; 4: complete reduction in damage (appearance corresponding to the untreated control). Conditions: safener dose 500 g/ha, sprayed at BBCH10-12, followed by mesosulfuron-methyl 40-60 g/ha, visual assessment 9-13 days after application, 2 repeats. The protocol:
2.1 Relative Action of Selected Compounds of the Invention Using the Example of Reduction of Damage by Mesosulfuron-Methyl on Summer Barley (HORVS) The seeds of the crop plants to be treated are laid out in sandy loam in plastic pots (diameter ˜4 cm), covered with soil and grown in a greenhouse under good conditions for germination and growth. The trial plants were treated at the early leaf stage (BBCH10-BBCH12). In the course of this, the inventive compounds of the general formula (I) formulated in the form of wettable powders (WP) were sprayed onto the above-ground parts of the plants as an aqueous suspension with a water application rate corresponding to 800 l/ha with addition of wetting agent (e.g. 0.2% Genapol-LRO or 0.2% Mero) in the specified dose. This was followed by the application of the herbicide. For this purpose, mesosulfuron-methyl, formulated in the form of water-dispersible granules (WG), was sprayed onto the above-ground parts of the plants in the form of an aqueous dispersion with a water application rate corresponding to 800 l/ha with addition of wetting agent (e.g. 0.2% Genapol-LRO or 1 l/ha Biopower) in a dose of 40-60 g/ha. […] 9-13 days after application, the efficacy of the test compounds was assessed visually. […]

Regarding `COC(=O)COc1nc(-c2ccc(F)cc2F)n(-c2ccc(F)cn2)n1` [I.40-11, Methyl {[5-(2,4-difluorophenyl)-1-(5-fluoropyridin-2-yl)-1H-1,2,4-triazol-3-yl]oxy}acetate], the “Efficacy of the safener (efficacy code)” value is reported as 2.

The values above are taken from US12617760B2, “[(5-phenyl-1-heteroaryl-1H-triazol-3-yl)oxy] acetic acid derivatives as safeners for the protection of useful plants and crop plants” (BAYER AKTIENGESELLSCHAFT, priority 2020, dated 2026).
